Assay results: patent publication US20240226234A1, “WNT5A PEPTIDES FOR THE TREATMENT OF ACUTE M[…]” (W[…], priority 2021, published 2024)
No end group written: not given here. *: point of attachment. For = O=C*

Key:
[1] = tested on: U937 xenografts; assay: U937 xenograft mouse model, tumour growth; assay type: in vivo; conditions: NOD/SCID mice, Foxy-5 40 μg/μL i.p. once every 2 days
Text: The control group received equal amounts of vehicle solution.

[2] = tested on: K562 cells; assay: Actin polymerization assay, K562 cells; assay type: cell-based, human; conditions: K562, Foxy-5 100 μM 72 h
Method: F-actin polymerization was analyzed in treated leukemic cell lines using AlexaFluor 633-labeled phalloidin (A22284, Invitrogen) before and after CXCL12 stimulation. The cells were stimulated with CXCL12 (300 ng/ml; Peprotech) in serum-free media at 37 °C for 30 and 120 seconds. The reaction was stopped by adding 3 volumes of paraformaldehyde (3.7%) at room temperature for 10 min, then washed and permeabilized on ice. Cells were stained with 633-phalloidin (2 mg/mL). Flow cytometric data were analyzed using a FACS flow cytometer (BD) followed by FlowJo software analysis. The F-actin content obtained were normalized calculating the ratio between each stimulated cells-mean fluorescence intensity (MFI) values and the nonstimulated cells MFI from the basal levels of the control cells and expressed as fold change.
Therefore, we performed a flow cytometry analysis to evaluate whether Foxy-5 treatment would be able to disrupt actin polymerization. Leukemia cell lines were treated with Foxy-5 (100 μM) or vehicle during 72 hours, stimulated with CXCL12 (300 ng/ml) for 30 or 120 seconds, and stained with […] for detection of actin polymerization by flow cytometry. […] Thus, a significant reduction of actin polymerization was shown after Foxy-5 treatment when compared to untreated cells after 30 seconds of CXCL12 induction (P<. 001).

[3] = tested on: K562 cells; assay: Cell growth assay, K562 cells; assay type: cell-based, human; conditions: Foxy-5 100 μM, 72 h
Method: A panel of human myeloid leukemia cell lines (HL60, K562, KG1a, THP1 and U937) and HS-5 mesenchymal stromal cells lineage were cultured in Roswell Park Memorial Institute medium-1640 (RPMI; Sigma) containing 10% Fetal Bovine Serum (Gibco), glutamine (2 mM; Sigma), penicillin (100 μg/mL; Sigma), streptomycin (100 μg/mL; Sigma), and amphotericin B (0.25 μg/mL; Gibco). The cells were maintained in a humidified atmosphere at 37° C. and 5% CO2 and the experiments were performed when they reached exponential growth. For the assays, cells were seeded on a 24-well plate and treated or not with Foxy-5 for 72 hours.
Cells treated with Foxy or with vehicle were collected and cell number was evaluated by manual counting in monoculture and by microscopy with Image J software analysis in 2D culture.
Next, we evaluated the proliferation rates since this process is modulated by ROS. We treated the cells with Foxy-5 (100 μM) or with vehicle (DMSO) during 72 hours, and then cell growth was analyzed by counting the cells in monoculture, manually, or by the Image J software analysis of the 2D cultures. […] Similar results were obtained in the 2D culture system using leukemia cells and HS-5 mesenchymal stromal cells.

Foxy-5: Formylated hexapeptide fragment of WNT5A: MDGCEL (SEQ. ID. NO. 3) with methionine in position 1 as N-formyl methionine; WNT5A-mimicking compound (For-MDGCEL; listed as Homo sapiens)
tumour volume (median) ([1]; 9 days): 469 mm^3 | inhibition of tumour growth ([1]; vs control group at day 9): 55.46% | inhibition of tumour weight ([1]; vs control group at day 9): 45.51% | F-actin content following CXCL12 stimulation ([2]; CXCL12 300 ng/ml for 30 seconds): 1.37 fold increase | F-actin content following CXCL12 stimulation ([2]; CXCL12 300 ng/ml for 120 seconds): 1.31 fold increase | reduced cell growth compared to vehicle treated cells ([3]; K562, 2D culture with HS-5 stromal cells): 1.79 fold decrease | reduced cell growth compared to vehicle treated cells ([3]; K562, monoculture): 3.12 fold decrease
